Where two headings read alike, the source gives them in different places.
Test system: PopE-F10 M-833 resistant clone (PfSTART1 N330K)
Experiment: Growth inhibition assay (72 h, LDH activity)
Type: cell-based, Plasmodium falciparum
Description: The drug was then removed, and parasites were allowed to recover. Another cycle of drug treatment (3 μM M-833) was then resumed. The resistant lines were cloned out by limiting dilution (diluting the culture into a 96-well plate to achieve an average of ~0.3 parasites per well), prior to growth inhibition assays and genomic DNA (gDNA) extraction (DNeasy Blood and Tissue kit (Qiagen)[18].
Parasite growth assays with inhibitory compounds were performed as per[11] and are fully described in the Supplementary Information. […]
Growth inhibition assays. Synchronised ring-stage parasites (0.3-0.6% parasitemia, 2% haematocrit) were grown for 72 h in a serial-dilution of the compound under […]
and compound 4. Note that M-833 was first purchased from MolPort (MolPort -002-267-916) then made in-house at WEHI: the differences observed in EC50s across experiments are attributed to the different batches of M -833. For some experiments, 0, 0.25 or 2.5 mM of glucosamine (GlcN) was also added. Experiments were set up in technical duplicates or triplicates. Following a freeze -thaw cycle, lactate dehydrogenase (LDH) activity was assessed as an indicator of parasite growt h 5. 30 μL of parasite culture was incubated for 30 min in the dark with 75 μL Malstat mixture (0.1 M Tris pH 9.0, 20 g/L lactic acid, pH 7.5, 0.2% Triton-X100, 0.5 g/L acetylpyridine adenine dinucleotide (APAD, Sigma), 200 μg/mL nitroblue tetrazolium (NBT; Sigma), 1 μg/mL phenozine ethosulfate (PES; Sigma)). Absorbance was then measured at 650 nm, transformed using the formula below, plotted against the logarithm of the concentrations, and a non-linear regression (log(inhibitor) vs. response, variable slope) was calculated using GraphPad Prism to assess the half-inhibitory […]
Growth inhibition % = (1 − average(sample)− average(uRBC)) ∗ 100 […]
The DMSO samples were also used to assess growth of parasite in the presence of 0.25 and 2.5 mM GlcN (normalised by DMSO in 0 mM GlcN). […]

Cc1cc(Cl)c(S(=O)(=O)N2CCCC2)cc1OCC(=O)NC1CCCCC1 [M-833]
Normalised to DMSO (M-833 0.0390625 uM, Pop E-F10 replicate 1): 109.097
Normalised to DMSO (M-833 0.0390625 uM, Pop E-F10 replicate 3): 103.799
Normalised to DMSO (M-833 0.078125 uM, Pop E-F10 replicate 1): 108.039
Normalised to DMSO (M-833 0.078125 uM, Pop E-F10 replicate 3): 104.854
Normalised to DMSO (M-833 0.15625 uM, Pop E-F10 replicate 1): 116.502
Normalised to DMSO (M-833 0.15625 uM, Pop E-F10 replicate 3): 108.125
Normalised to DMSO (M-833 0.3125 uM, Pop E-F10 replicate 1): 113.047
Normalised to DMSO (M-833 0.3125 uM, Pop E-F10 replicate 3): 113.296
Normalised to DMSO (M-833 0.625 uM, Pop E-F10 replicate 1): 116.996
Normalised to DMSO (M-833 0.625 uM, Pop E-F10 replicate 3): 104.749
Normalised to DMSO (M-833 1.25 uM, Pop E-F10 replicate 1): 105.924
Normalised to DMSO (M-833 1.25 uM, Pop E-F10 replicate 3): 104.326
Normalised to DMSO (M-833 2.5 uM, Pop E-F10 replicate 1): 101.551
Normalised to DMSO (M-833 2.5 uM, Pop E-F10 replicate 3): 105.276
Normalised to DMSO (M-833 5 uM, Pop E-F10 replicate 1): 94.8519
Normalised to DMSO (M-833 5 uM, Pop E-F10 replicate 3): 96.4122
Normalised to DMSO (M-833 10 uM, Pop E-F10 replicate 1): 72.2144
Normalised to DMSO (M-833 10 uM, Pop E-F10 replicate 3): 80.0563
EC50 (Plasmodium falciparum, 72 h, Supplementary Table 1, PopE-F10 (N330K)): > 20 µM
inhibition at 0.0390625 µM (Plasmodium falciparum, M-833 0.0390625 uM, Pop E-F10 replicate 1, read-out: % Inhibition): -9.1%
inhibition at 0.0390625 µM (Plasmodium falciparum, M-833 0.0390625 uM, Pop E-F10 replicate 3, read-out: % Inhibition): -3.8%
inhibition at 0.078125 µM (Plasmodium falciparum, M-833 0.078125 uM, Pop E-F10 replicate 1, read-out: % Inhibition): -8.04%
inhibition at 0.078125 µM (Plasmodium falciparum, M-833 0.078125 uM, Pop E-F10 replicate 3, read-out: % Inhibition): -4.85%
inhibition at 0.15625 µM (Plasmodium falciparum, M-833 0.15625 uM, Pop E-F10 replicate 1, read-out: % Inhibition): -16.5%
inhibition at 0.15625 µM (Plasmodium falciparum, M-833 0.15625 uM, Pop E-F10 replicate 3, read-out: % Inhibition): -8.13%
inhibition at 0.3125 µM (Plasmodium falciparum, M-833 0.3125 uM, Pop E-F10 replicate 1, read-out: % Inhibition): -13%
inhibition at 0.3125 µM (Plasmodium falciparum, M-833 0.3125 uM, Pop E-F10 replicate 3, read-out: % Inhibition): -13.3%
inhibition at 0.625 µM (Plasmodium falciparum, M-833 0.625 uM, Pop E-F10 replicate 1, read-out: % Inhibition): -17%
inhibition at 0.625 µM (Plasmodium falciparum, M-833 0.625 uM, Pop E-F10 replicate 3, read-out: % Inhibition): -4.75%
inhibition at 1.25 µM (Plasmodium falciparum, M-833 1.25 uM, Pop E-F10 replicate 1, read-out: % Inhibition): -5.92%
inhibition at 1.25 µM (Plasmodium falciparum, M-833 1.25 uM, Pop E-F10 replicate 3, read-out: % Inhibition): -4.33%
inhibition at 2.5 µM (Plasmodium falciparum, M-833 2.5 uM, Pop E-F10 replicate 1, read-out: % Inhibition): -1.55%
inhibition at 2.5 µM (Plasmodium falciparum, M-833 2.5 uM, Pop E-F10 replicate 3, read-out: % Inhibition): -5.28%
inhibition at 5 µM (Plasmodium falciparum, M-833 5 uM, Pop E-F10 replicate 1, read-out: % Inhibition): 5.15%
inhibition at 5 µM (Plasmodium falciparum, M-833 5 uM, Pop E-F10 replicate 3, read-out: % Inhibition): 3.59%
inhibition at 10 µM (Plasmodium falciparum, M-833 10 uM, Pop E-F10 replicate 1, read-out: % Inhibition): 27.8%
inhibition at 10 µM (Plasmodium falciparum, M-833 10 uM, Pop E-F10 replicate 3, read-out: % Inhibition): 19.9%
inhibition at 0.0390625 µM (Plasmodium falciparum, Pop E-F10 replicate 1, M-833 0.0390625 uM): -3%
inhibition at 0.078125 µM (Plasmodium falciparum, Pop E-F10 replicate 1, M-833 0.078125 uM): -0.769%
inhibition at 0.15625 µM (Plasmodium falciparum, Pop E-F10 replicate 1, M-833 0.15625 uM): -1.15%
inhibition at 0.3125 µM (Plasmodium falciparum, Pop E-F10 replicate 1, M-833 0.3125 uM): -1.42%
inhibition at 0.625 µM (Plasmodium falciparum, Pop E-F10 replicate 1, M-833 0.625 uM): -0.0475%
inhibition at 1.25 µM (Plasmodium falciparum, Pop E-F10 replicate 1, M-833 1.25 uM): 1.29%
inhibition at 2.5 µM (Plasmodium falciparum, Pop E-F10 replicate 1, M-833 2.5 uM): 3.54%
inhibition at 5 µM (Plasmodium falciparum, Pop E-F10 replicate 1, M-833 5 uM): 13.5%
